{"source": "patent US12728099B2", "about": "“Formulation to deliver lipophilic active ingredients” (priority 2020, dated 2026)", "key": {"[1]": {"conditions": "cited from earlier work"}, "[2]": {"test": "Solubility in different dissolution media (HPLC)", "conditions": "25 °C, thermodynamic from solid"}, "[3]": {"test": "Dissolution rate in 1% aqueous sodium cholate solution (HPLC)", "assay_type": "physicochemical", "conditions": "1% w/v sodium cholate, total 30 μg/mL", "protocol": "Chromatogram recording was performed at 210 nm."}, "[4]": {"test": "Morphology by scanning electron / optical microscopy", "assay_type": "physicochemical", "conditions": "SEM or optical microscope", "protocol": "Morphologically, scanning electron microscopy (SEM) analyses of both forms were performed."}, "[5]": {"test": "Particle size by light scattering", "assay_type": "physicochemical", "protocol": "The nanostructured PEA suspension obtained according to Example 1 was analyzed by light scattering to assess the size of the nanoparticles."}}, "note": "Like-named read-outs stand apart in the source and are kept apart here."}
{"smiles": "CCCCCCCCCCCCCCCC(=O)NCCO", "note": "[Raw PEA, Palmitoylethanolamide]", "values": [{"measurement": "Solubility", "setting": "[1]; methanol, ethanol, and isopropyl alcohol", "result": "poorly soluble"}, {"measurement": "Solubility", "setting": "[1]; water, oils, and most common organic solvents", "result": "practically insoluble"}, {"measurement": "solubility at 24 h", "setting": "[2]; demineralized water, water", "result": "< 0.1", "unit": "µg/mL"}, {"measurement": "solubility at 24 h", "setting": "[2]; phosphate buffer, pH 7.4, aqueous buffer", "result": "0.64 ± 0.05", "unit": "µg/mL"}, {"measurement": "solubility at 24 h", "setting": "[2]; simulated intestinal fluid, pH 6.8, fassgf or other biorelevant", "result": "0.22 ± 0.03", "unit": "µg/mL"}, {"measurement": "solubility at 24 h", "setting": "[2]; simulated pulmonary fluid, pH 7.4, fassgf or other biorelevant", "result": "0.8 ± 0.12", "unit": "µg/mL"}, {"measurement": "Dissolved PEA (dissolution rate)", "setting": "[3]; 30 min", "result": "3.31 ± 2.30", "unit": "µg/mL"}, {"measurement": "Dissolved PEA (dissolution rate)", "setting": "[3]; 1 hour", "result": "4.56 ± 1.02", "unit": "µg/mL"}, {"measurement": "Dissolved PEA (dissolution rate)", "setting": "[3]; 2 hours", "result": "6.15 ± 1.22", "unit": "µg/mL"}, {"measurement": "Dissolved PEA (dissolution rate)", "setting": "[3]; 4 hours", "result": "8.61 ± 0.68", "unit": "µg/mL"}, {"measurement": "Dissolved PEA (dissolution rate)", "setting": "[3]; 6 hours", "result": "9.31 ± 0.71", "unit": "µg/mL"}, {"measurement": "Morphology / obtainment of nanostructures", "setting": "[4]", "result": "irregular macroscopic agglomerates (a few tens of microns)"}, {"measurement": "Size (nm ± SD)", "setting": "[5]", "result": "Macro and microscopic flakes"}]}
